These results are taken from patent US12545685B2 (Daiichi Sankyo Company, Limited, priority 2011, dated 2026).

Molecules are shown by their SMILES.

Broadly, the IC50 is the concentration that inhibits the measured activity by half. High values mean weaker potency, low ones greater potency.

For the experiment, the target named is T1, Mdm2/p53 binding (GST-Mdm2 / His-p53) (Homo sapiens, UniProt Q00987, L33E).
T1 construct: Mdm2 partial protein having Mdm2 amino acids at positions 25 to 108
T1 sequence (Q00987 25-108 L33E): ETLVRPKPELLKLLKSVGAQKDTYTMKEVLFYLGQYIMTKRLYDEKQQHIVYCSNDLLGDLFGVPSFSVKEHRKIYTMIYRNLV
The experiment is described as follows: Mdm2/p53 binding assay (HTRF, His-p53 and GST-Mdm2). The conditions noted are these: His-p53 (aa 1-132) and GST-Mdm2 (aa 25-108, L33E) 6.25 nM each; 25°C, 1 hour; values given as ranges. On the procedure:
A protein dilution containing 6.25 nM each of His-p53 (fusion protein of a p53 partial protein having p53 amino acids at positions 1 to 132, with a histidine protein) and GST-Mdm2 (fusion protein of an Mdm2 partial protein having Mdm2 amino acids at positions 25 to 108 with leucine residue 33 substituted by glutamic acid, with glutathione transferase) proteins was prepared using a protein buffer solution (20 mM HEPES pH 7.4, 150 mM NaCl, 0.1% BSA). This protein dilution was added in an amount of 8 μl/well to a 384-well plate (384-well low volume NBC, Corning Inc., catalog No: 3676).
Next, a test compound was diluted with DMSO to produce a protein buffer solution containing 10% dilution, and this buffer solution was added in an amount of 4 μl/well to the plate.
Subsequently, a solution containing an XL665-labeled anti-His antibody (HTRF monoclonal anti-6HIS antibody labeled with XL665 (catalog No: 61HISXLB), Schering/Cisbio Bioassays) and a europium (Eu)-labeled anti-GST antibody (HTRF monoclonal anti-GST antibody labeled with europium cryptate, Schering/Cisbio Bioassays, catalog No: 61GSTKLB) at concentrations of 2.5 μg/ml and 0.325 μg/ml, respectively, was prepared using an antibody diluting buffer solution (20 mM HEPES pH 7.4, 150 mM NaCl, 0.1% BSA, 0.5 M KF). These dilutions were added in an amount of 8 μl/well (total reaction solution volume: 20 μl/well). Then the plate was incubated at 25° ° C. for 1 hour.
Time-resolved fluorescence at 620 and 665 nm was measured at an excitation wavelength of 320 nm using a plate reader (ARVOsx, PerkinElmer Co., Ltd. or PHERAstar, BMG LABTECH). Ratio (R) was calculated using the measured values (RFU 620 nm and RFU 665 nm) according to the following formula: […]
BI: measured value at 665 nm of reaction solution (only each buffer solution) nonsupplemented with each protein, the compound, and the antibodies
A and D: each measured value at 665 nm and 620 nm of reaction solution supplemented with only Eu-labeled anti-GST antibody solution
The R value calculated from the well supplemented with His-p53, GST-Mdm2, the test compound, and each antibody was defined as R (sample). The R value calculated from the well supplemented with His-p53, GST-Mdm2, and each antibody but without the test compound was defined as R (control). The R value calculated from the well supplemented with GST-Mdm2 the test compound, and each antibody but without His-p53 was defined as R (background). T/C was calculated from the formula shown below. An IC50 value for Mdm2/p53 binding was calculated by sigmoid fitting.
As to `CC(=O)Nc1cc(Cl)cc([C@H]2[C@H](C(=O)N[C@H]3CC[C@H](O)CC3)NC3(CCC(C)(C)CC3)[C@@]23C(=O)Nc2cc(Cl)ccc23)c1` [Example 37, (3′R, 4′R, S′R)-4′-(3-acetamide-5-chlorophenyl)-6″-chloro-N-(trans-4-hydroxycyclohexyl)-4,4-dimethyl-2″-oxo-1″,2″-dihydrodispiro[cyclohexane-1,2′-pyrrolidine-3′,3″-indole]-5′-carboxamide], the IC50 was 0.05 to 0.1 µM. As for `CC1(C)CCC2(CC1)N[C@@H](C(=O)N[C@H]1CC[C@](O)(CO)CC1)[C@H](c1ccnc(Cl)c1F)[C@]21C(=O)Nc2cc(Cl)ccc21` [Example 39], the figure is 0.05 to 0.1 µM. Regarding `CC1(C)CCC2(CC1)N[C@@H](C(=O)N[C@H]1CC[C@H](c3noc(=O)[nH]3)CC1)[C@H](c1ccnc(Cl)c1F)[C@]21C(=O)Nc2cc(Cl)ccc21` [Example 41, (3′R, 4′S,5′R)-6″-chloro-4′-(2-chloro-3-fluoropyridin-4-yl)-4,4-dimethyl-2″-oxo-N-[trans-4-(5-oxo-4,5-dihydro-1,2,4-oxadiazol-3-yl)cyclohexyl]-1″,2″-dihydrodispiro[cyclohexane-1,2′-pyrrolidine-3′,3″-indole]-5′-carboxamide], the IC50 was 0.001 to 0.05 µM. As to `CC1(C)CCC2(CC1)N[C@@H](C(=O)N[C@H]1CO[C@H](CO)[C@@H](O)C1)[C@H](c1cccc(Cl)c1F)[C@]21C(=O)Nc2cc(Cl)ccc21` [Example 42, (3′R, 4′S,5′R)-6″-chloro-4′-(3-chloro-2-fluorophenyl)-N-[(3R,5S,6R)-5-hydroxy-6-(hydroxymethyl)tetrahydro-2H-pyran-3-yl]-4,4-dimethyl-2″-oxo-1″,2″-dihydrodispiro[cyclohexane-1,2′-pyrrolidine-3′,3″-indole]-5′-carboxamide], the IC50 fell in the range of 0.001 to 0.05 µM. `CO[C@H]1C[C@@H](NC(=O)[C@@H]2NC3(CCC(C)(C)CC3)[C@@]3(C(=O)Nc4cc(Cl)ccc43)[C@H]2c2cccc(Cl)c2F)CO[C@@H]1CO` [Example 43, (3′R, 4′S,5′R)-6″-chloro-4′-(3-chloro-2-fluorophenyl)-N-[(3R,5S,6R)-6-(hydroxymethyl)-5-methoxytetrahydro-2H-pyran-3-yl]-4,4-dimethyl-2″-oxo-1″,2″-dihydrodispiro[cyclohexane-1,2′-pyrrolidine-3′,3″-indole]-5′-carboxamide] displayed an IC50 of 0.1 to 0.5 µM. As for `CC(=O)N(CCO)C[C@@H]1CC[C@@H](NC(=O)[C@@H]2NC3(CCC(C)(C)CC3)[C@@]3(C(=O)Nc4cc(Cl)ccc43)[C@H]2c2ccnc(Cl)c2F)CO1` [Example 44], the figure is 0.001 to 0.05 µM; as for `CO[C@H]1C[C@@H](NC(=O)[C@@H]2NC3(CCC(C)(C)CC3)[C@@]3(C(=O)Nc4cc(Cl)ccc43)[C@H]2c2ccnc(Cl)c2F)CO[C@@H]1CO` [Example 45, (3′R, 4′S,5′R)-6″-chloro-4′-(2-chloro-3-fluoropyridin-4-yl)-N-[(3R,5S,6R)-6-(hydroxymethyl)-5-methoxytetrahydro-2H-pyran-3-yl]-4,4-dimethyl-2″-oxo-1″,2″-dihydrodispiro[cyclohexane-1,2′-pyrrolidine-3′,3″-indole]-5′-carboxamide], 0.05 to 0.1 µM; as for `CC1(C)CCC2(CC1)N[C@@H](C(=O)N[C@@H]1CC[C@@H](C(C)(C)O)OC1)[C@H](c1cccc(Cl)c1F)[C@]21C(=O)Nc2cc(Cl)ccc21` [Example 46, (3′R, 4′S,5′R)-6″-chloro-4′-(3-chloro-2-fluorophenyl)-N-[(3R,6S)-6-(1-hydroxy-1-methylethyl)tetrahydro-2H-pyran-3-yl]-4,4-dimethyl-2′-oxo-1″; 2″-dihydrodispiro[cyclohexane-1,2′-pyrrolidine-3′,3″-indole]-5′-carboxamide], 0.001 to 0.05 µM.
